Data as given in patent publication US11879140B2, “P21 mRNA targeting DNAzymes” (1E Therapeutics Ltd., priority 2020, dated 2024).

Legend:
[1] = test system: senescent human IMR-90 fibroblast cells; format: cell-based; details: increasing concentrations (FIGS. 6A-C, 12A-C)
Summary of the method: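 Senescence was induced by etoposide at […] for 48 h, with the phenotype present 7 days later, or by H-RasG12 or long-term passaging. Cells grown at 5% oxygen were transfected with DNAzymes by Lipofectamine 2000, and survival was scored 3-6 days later by PrestoBlue relative to Lipofectamine-only control.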

[2] = test system: senescent lung fibroblasts (WI-38); test: Viability assay on WI-38 cells; format: cell-based, human; details: FIG. 6D
Method: (§1) Human IMR-90, BJ, WI-38 fibroblasts and REC epithelial cells were obtained from ATCC and grown at 5% oxygen. IMR-90 and REC cells were maintained in DMEM medium comprising 100 units per ml of penicillin, […] of streptomycin and 10% fetal bovine serum. BJ and WI-38 cells were maintained in EMEM medium comprising 100 units per ml of penicillin, […] of streptomycin, 10% fetal bovine serum, 1% Pyruvate, 1% L-Glutamine, mLFs were isolated according to standard procedures [Seluanov, A., et al. J Vis Exp (2010) (44):2033] and grown at 5% oxygen. Cells were maintained in EMEM medium comprising 100 units per ml of penicillin, […] of streptomycin and 15% fetal bovine serum.
(§2) DNA damage induced senescence (DIS) was induced by etoposide treatment (E1383, Sigma) at a concentration of […] for IMR-90, BJ, and WI-38, 16 μM for mLF and 12.5 μM for REC for a duration of 48 hours. Cells acquired the senescence phenotype 7 days post treatment (determined by SA-beta-gal staining).
(§3) Primary target cells (IMR-90, BJ, […]) were plated in 24-well plates at 100,000 cells per well. Cells were transfected with different concentrations of DNAzymes (as depicted in Table 2, below) using Lipofectamine™ 2000 (Invitrogen) according to manufacturer instructions. […]

[3] = test system: senescent epithelial kidney cells (REC); test: Viability assay on REC cells; format: cell-based, human; details: FIG. 6D
Method: as §1, §2, §3

human p21 mRNA = test: In vitro cleavage assay of human p21 mRNA; format: biochemical; details: in vitro cleavage of p21 mRNA (SEQ ID NO: 1); RNA substrate 500 nM, 37° C. 60 min, agarose gel
Source text: Total RNA was isolates from senescent IMR-90 cells using Nucleospin® RNA kit (Macherey-Nagel™). cDNA was synthesized with gene-specific reverse primers using M-MLV Reverse Transcriptase (Promega), according to the manufacturer's protocol. To generate template for in vitro transcription (IVT) reaction, the cDNA was PCR amplified using KAPA Taq EXtra HotStart® ReadyMix™ PCR Kit (R&D). PCR product was run on 1.5% agarose TAE gel, the correct band size was cut and DNA was cleaned using Wizard® SV Gel and PCR Clean-Up System kit (Promega). IVT was performed using HiScribe™ T7 High Yield RNA Synthesis Kit (NEB). Samples were then treated with DNase I (New England Biolabs) and incubated for 15 minutes at 37° C. IVT product was run on 1.5% agarose TBE gel, the correct band size was cut and RNA was cleaned using QIAquick® Gel Extraction Kit (Qiagen). See primer sequences in Table 1, below.
RNA substrate was diluted with Molecular Biology Grade Water (Biological Industries) and used in in vitro cleavage assay. A 20 μl reaction system comprising RNA substrate (final concentration 500 nM), 2 μl 10× reaction buffer (50 mM Tris-HCl pH 7.4, 100 mM NaCl, 10 mM MgCl2) and 1 μl DNAzyme (10 μM) (as depicted in Table 2, below) was mixed. Reactions were incubated at 37° C. for 60 min. 2×RNA L.D. (Thermo Fisher) was added to each sample. Samples were heated at 70° C. for 30 sec, centrifuged and loaded onto 1.5% agarose TBE gels. Quantification was performed using Image Lab software (Bio Rad).

mouse p21 mRNA = test: In vitro cleavage of mouse p21 mRNA; format: biochemical; details: in vitro cleavage of mouse p21 mRNA (SEQ ID NO: 3)
[4] = test system: Bleomycin-induced pulmonary fibrosis model mice; test: Bleomycin-induced idiopathic pulmonary fibrosis (IPF) mouse model; format: in vivo
Method: Total RNA from lung samples (post-caval lobe) was extracted using RNAiso (Takara Bio. Japan) according to manufacturer protocol. Reverse transcription was performed using MMLV-RT (Invitrogen). Real-time PCR was performed using TB Green™ Premix Ex Taq™ II (Takara Bio). To calculate the relative mRNA expression level, the expression of each gene (Collagen Type 1) were be normalized to that of reference gene 36B4 (gene symbol: Rplp0).
C57/B6 mice were induced to develop pulmonary fibrosis by a single intra-tracheal administration of Bleomycin hydrochloride (Nippon Kayaku. Japan) in saline at a dose of 3.0 mg/kg, in a volume of 50 μL per animal using Microsprayer® (Penn-Century. USA). Mice that served as the Sham control group were intratracheally administered with saline, instead of the Bleomycin. Mice were initially randomized based on body weight before Bleomycin instillation. At second randomization, Bleomycin-induced pulmonary fibrosis model mice were divided based on the body weight changes on the day before the start of treatment at Day 7. DNAzyme treatment was performed intranasally with 200 μg of DNAzyme resuspended in 50 μL PBS per treatment. PBS intra-nasal treatment served as control. Mice were treated daily following Bleomycin instillation with either DNAzyme or control from day 1 to 20 (prophylactic regimen) or from day 7 to 20 (therapeutic regimen). Body weight, viability, clinical signs and behavior were monitored daily. Mice were sacrificed three weeks following Bleomycin instillation.
Right lung tissues prefixed in 10% neutral buffered formalin were embedded in paraffin and sectioned at 4 μm.
For immunohistochemistry (IHC) staining, sections were subjected to heat induced epitope retrieval (HIER) Following HIER, the sections were incubated rabbit monoclonal anti-p21 antibody [EPR18021] (Abcam) 1:2000 or rabbit monoclonal anti-α-SMA antibody [EPR5368] (Abcam) 1:2000. Section bound primary antibody was detected employing horseradish peroxidase labeled anti-rabbit IgG polymeric reagent.
For Masson's Trichrome staining, the sections were deparaffinized and rehydrated, followed by re-fixation with Bouin's solution for 15 minutes. The sections were stained in Weigert's iron Hematoxylin working solution (Sigma-Aldrich), Biebrich scarlet-Acid fuchsin solution (Sigma-Aldrich), Phosphotungstic/phosphomolybdic Acid solution, Aniline blue solution and 1% Acetic Acid solution (Sigma-Aldrich). For quantitative analysis of lung fibrosis area, bright field images of Masson's Trichrome-stained sections were randomly captured using a digital camera (DFC295; Leica, Germany) at 100-fold magnification, and the subpleural regions in 20 fields/mouse were evaluated according to the criteria for grading lung fibrosis [Ashcroft. T. et al., Simple method of estimating severity of pulmonary fibrosis on a numerical scale. J Clin. Pathol. (1988) 41: 467-470]. All sections were blindly analyzed by an experimenter.
Digital images were analyzed by a custom MATLAB algorithm, using Image Processing Toolbox. First, a binary image was calculated, in order to distinguish background pixels from the lobe pixels. Next, a morphological close operation on the image was preformed, fill of the holes, and extraction of the largest connected component, in order to detect all lobe area, including alveoli. The density of the lobe was defined by the ratio between the stained pixels to the total pixels in the lobe area. For Masson's Trichrome staining, blue pixels were detected and separated from purple staining by specifying RGB (red, green, and blue) constraints. The Collagen percentage in each image was defined by the ratio between the blue pixels to the total pixels in the lobe area.
For p21 staining, an image segmentation algorithm was performed to identify all nuclei in image. Next, cells positive to p21 were detected by RGB and size constraints. […]

Question: “DNAzyme 1114: SEQ ID NO: 40: AGGAGAACAggctagctacaacgaGGGAUGAGG (DNA AGGAGAACAGGCTAGCTACAACGAGGGAUGAGG; DNA, backbone, methylation of C and T or U not given here)” was tested. Which “selectivity of killing, senescent versus growing IMR-90 cells” value [1] did it give?
Answer: maintained over a large range of concentrations

Question: What about the “elimination of senescent but not growing WI-38 cells” value [2] of the same substance?
Answer: effectively eliminated

Question: What about the “elimination of senescent but not growing REC cells” value [3] of the same substance?
Answer: effectively eliminated

Question: What about the Validated cleavage (human p21 mRNA) of the same substance?
Answer: validated for mediating cleavage of p21 mRNA

Question: With “Dz_639: targets mouse p21; SEQ ID NO: 85: GGCCGAAGAggctagctacaacgaGGGGAAGAG; used in IPF model (GGCCGAAGAGGCTAGCTACAACGAGGGGAAGAG; chemistry not given here)” as the substance, how does the Validated cleavage (mouse p21 mRNA) read?
Answer: effective

Question: And the “oxygen saturation in the blood” value ([4]; FIG. 14A)?
Answer: significantly elevated

Question: What about the “number of p21 expressing cells in the lung tissue” value ([4]; both treatment regimens, IHC day 21 (FIG. 14B)) of the same substance?
Answer: reduction

Question: What about the Hydroxyproline levels ([4]; left lung, day 21, therapeutic and preventative (FIG. 14E)) of the same substance?
Answer: reduced

Question: What about the Ashcroft fibrosis score ([4]; lung sections day 21, compared to bleomycin treated group, p=0.0206 (FIG. 10B)) of the same substance?
Answer: lower

Question: And the survival rate ([4]; over 21 days, both therapeutic and preventative regimens, vehicle group 75% (FIG. 10D))?
Answer: 100%

Question: And the “expression levels of senescence related genes and SASP factors” value ([4]; post caval lobe, day 21 (FIG. 14C))?
Answer: significantly reduced

Question: What about the lung tissue density ([4]; therapeutic and preventive groups (FIG. 14F)) of the same substance?
Answer: reduced

Question: What about the “collagen levels (Masson's Trichrome)” value ([4]; therapeutic and preventive regimens (FIG. 14D)) of the same substance?
Answer: significantly reduced
